Measured values taken from patent US8829004B2, “Method for inducing tumor apoptosis by increasing nitric oxide levels” (Universitätsklinikum Freiburg, priority 2006, dated 2014).

Experiments:
MKN-45 = assay: Inhibitor effect on inducer-mediated apoptosis, MKN-45 cells (Example 6); format: cell-based
Experimental: (§1) The effect of a singlet oxygen scavenger, a NO synthase inhibitor and a HOCl scavenger on either the destruction of the catalase or the HOCl pathway was determined by the following experiment. 12500 SISO cells in 100 μl media in 96 tissue wells were treated with taxol (20 μg/ml) in the presence of TGF-β (20 ng/ml). In addition, the singlet oxygen scavenger, the NO synthase inhibitor or the HOCl scavenger was added at different points of time in the experiments.
(§2) Further experiments have been carried out using different types of cells and different apoptosis inhibitors. The experimental setup was analogue to the examples 5a-5c and the late addition of the inhibitor (histidine, L-NAME, 3-Br-7-Nitroindazole or taurine) was performed 1 hour after beginning of the experiment. The concentrations of taxol, histidine, L-NAME and taurine were the same as in the experiments 5a-5c. 3-Br-7-Nitroindazole was added at a concentration of 10 μm. The apoptosis inducing compounds were added at increasing concentrations (0-5 mM arginine, 0-20 μg/ml taxol, 0-20 μg/ml artemisine, 0-20 μg/ml xanthohumol, 0-20 μg/ml itraconazole, 0-10 μg/ml miconazole, 0-20 μg/ml antibody against Apo/FAS receptor). In each of the experiments, the effect of the inhibitors on the singlet oxygen mediated catalase destruction and/or the subsequent ROS signaling could be observed. […] Addition of histidine at the beginning of the experiment caused inhibition in all experiments and for all cell lines shown. […] The experiments using neuroblastoma cells only display apoptosis mediated by the NO pathway as these cells only release small amounts of peroxidase. Therefore, addition of the nNOS-specific inhibitor 3-Br-7NI caused inhibition of apoptosis, irrespective of the time of addition. […] Addition of taurine in the presence of higher concentrations of inducers inhibited apoptosis irrespective of the time of addition (zero versus one hour), as HOCl is only involved in intercellular signaling, but not in catalase destruction.

[1] = test system: SISO cells (human cervix carcinoma); assay: Apoptosis induction by taxol in SISO cells, 48 well (FIGS. 6-8, Example 4); format: cell-based; settings: for synergistic effect with taxol on apoptosis: 10 mM arginine, 200 μM Nor-NOHA or both, suboptimal taxol, 20 ng/ml TGF
Experimental: FIG. 6 discloses experimental data obtained with 25000 SISO cells (human cervix carcinoma) cultured in 48 well tissue culture clusters in the presence of the indicated concentrations of the established chemotherapeutic compound taxol. The assays contained 2 mM Histidine or not.
FIG. 7 discloses experimental data obtained with 25000 SISO cells (human cervix carcinoma) cultured in 48 well tissue culture clusters either in the absence of any inducer (“no addition”) or in the presence of 10 μg/ml taxol (“TAX”) without further additions or with the addition of 100 μM of the NADPH oxidase inhibitor AEBSF, 100 U/ml of the superoxide anion scavenger SOD (Manganese-containing SOD from E. coli), 100 U/ml catalase, 150 μM of the peroxidase inhibitor ABH (aminobenzoylhydrazide), 50 mM of the HOCl scavenger taurine, 1 mM of the hydroxyl radical scavenger mannitol, 2.4 mM of the NO synthase inhibitor L-NAME, and 25 μM of the inhibitors for caspase 3, −9 and 8.
FIG. 8 discloses experimental data obtained with 25 000 SISO cells in 48 well tissue culture clusters in the presence of 20 ng/ml TGF and the indicated concentrations of taxol. Where indicated, taxol containing assays received 10 mM arginine (10 ARG), 200 μM Nor-NOHA or a combination of both.
Human SISO cells are used in a 48-well plate (Costar) in 200 μl media with a cell concentration of 25,000. The media comprises 20 ng/ml TGF-beta and furthermore Taxol subjected for testing in a concentration ranging from 1.25-20 ng/ml. For comparison, control experiments are performed without Taxol which is tested for apoptosis induction.
Step 2 is carried out with the same conditions as specified for step 1, whereas all cells are contacted with taxol. In addition, histidine (2 mM) is added to the cells, whereas also experiments without histidine are performed as control experiments.
In a further experiment using the conditions of step 1, human tumor cells (SISO) are contacted with taxol (10 μg/ml) and 100 μM of the NADPH oxidase inhibitor AEBSF, 100 U/ml of the superoxide anion scavenger SOD (Manganese-containing SOD from E. coli), 100 U/ml catalase, 150 μM of the peroxidase inhibitor ABH (aminobenzoylhydrazide), 50 mM of the HOCl scavenger taurine, 1 mM of the hydroxyl radical scavenger mannitol or 2.4 mM of the NO synthase inhibitor L-NAME.

[2] = test system: normal diploid fibroblasts; assay: Toxicity test on normal diploid fibroblasts (step 3); format: cell-based; settings: conditions of step 1, two days; data not shown
Experimental: The method for identifying suitable compounds can additionally comprise a third step. The third step comprises contacting the identified compounds from step 2 with normal diploid fibroblasts in order to determine whether these compounds induce apoptosis or other toxic reactions and are therefore not suitable for a medical use.
The experimental conditions are the same as for step 1, whereas the cells used for step 3 are normal diploid fibroblasts. Control experiments are carried out without the test compound, and the cells are incubated for two days.

Gumbus = assay: Inhibitor effect on inducer-mediated apoptosis, Gumbus cells (Example 6); format: cell-based
Experimental: as §1, §2

[3] = test system: SISO cells (human cervix carcinoma); assay: Apoptosis induction by taxol in SISO cells, 48 well (FIGS. 6-8, Example 4); format: cell-based
SISO cells = assay: Timed inhibitor addition on inducer-mediated apoptosis in SISO cells, 96 well (Examples 5, 6); format: cell-based, human
Experimental: FIG. 9 discloses experimental data obtained with 12500 SISO cells in 96 well tissue culture clusters in the presence of 20 ng/ml TGF and the indicated concentrations of taxol. Furthermore, histidine was added at different time points in the experiment.
FIG. 11 refers to a similar experiment as described with respect to FIG. 8 or 9, whereas histidine/L-NAME was substituted by taurine (50 mM, scavenger of HOCl).
as §1
The concentrations of taxol, histidine, L-NAME and taurine were the same as in the experiments 5a-5c. 3-Br-7-Nitroindazole was added at a concentration of 10 μm. The apoptosis inducing compounds were added at increasing concentrations (0-5 mM arginine, 0-20 μg/ml taxol, 0-20 μg/ml artemisine, 0-20 μg/ml xanthohumol, 0-20 μg/ml itraconazole, 0-10 μg/ml miconazole, 0-20 μg/ml antibody against Apo/FAS receptor).

SHEP = assay: Inhibitor effect on inducer-mediated apoptosis, SHEP cells (Example 6); format: cell-based, human
Experimental: as §1
(§3) Further experiments have been carried out using different types of cells and different apoptosis inhibitors. The experimental setup was analogue to the examples 5a-5c and the late addition of the inhibitor (histidine, L-NAME, 3-Br-7-Nitroindazole or taurine) was performed 1 hour after beginning of the experiment. The concentrations of taxol, histidine, L-NAME and taurine were the same as in the experiments 5a-5c. 3-Br-7-Nitroindazole was added at a concentration of 10 μm. The apoptosis inducing compounds were added at increasing concentrations (0-5 mM arginine, 0-20 μg/ml taxol, 0-20 μg/ml artemisine, 0-20 μg/ml xanthohumol, 0-20 μg/ml itraconazole, 0-10 μg/ml miconazole, 0-20 μg/ml antibody against Apo/FAS receptor). In each of the experiments, the effect of the inhibitors on the singlet oxygen mediated catalase destruction and/or the subsequent ROS signaling could be observed. […]

[4] = test system: SKNMC cells (human neuroblastoma); assay: Apoptosis induction in SKNMC cells with ROS pathway inhibitors (FIG. 5); format: cell-based
Experimental: FIG. 5 discloses experimental data obtained with 25 000 SKNMC cells (human neuroblastoma) in 48 well tissue culture clusters (without addition of TGF-beta). […] Control assays contained the respective compound in the absence of any inhibitors. Parallel assays contained either 200 μM of the NADPH (nicotinamide adenine dinucleotide phosphate) oxidase inhibitor AEBSF, 10 μM of the nNOS-specific NO synthetase inhibitor 3-Br-7-Ni (3-bromo-7-nitroindazole), 2 mM of the singlet oxygen scavenger histidine or 50 mM of the HOCl scavenger taurine. The percentage of apoptotic cells was determined at the indicated time points.
For all inducers, apoptosis induction was dependent on superoxide anion generation and NO synthesis, as it was blocked by AEBSF and 3-Br-7-Ni respectively. In contrast to the NO/peroxynitrite pathway, the HOCl pathway played no role for apoptosis induction in this particular line. Apoptosis induction by all azoles tested depended on singlet oxygen action, as it was blocked by histidine.

L929 cells = assay: Apoptosis induction by azoles in L929 cells with TGF-beta; format: cell-based, murine; settings: 2 mM histidine; 3-AT at 25 mM
Experimental: FIG. 3 discloses experimental data obtained with 25000 L929 cells in 48 well tissue culture clusters in the presence of 20 ng/ml TGF-beta. Itraconazole was added at the indicated concentrations, in the presence or absence of 2 mM histidine (singlet oxygen scavenger). The percentage of apoptotic cells was determined after 37 hrs.
The dashed lines indicate the percentage of apoptotic cells obtained when the tumor cell catalase was blocked by 25 mM […] (3-AT).
FIG. 4 discloses experimental data obtained with 25000 L929 cells in 48 well tissue culture clusters in the presence of 20 ng/ml TGF-beta. “No addition” represents the control without addition of compound. […] The percentage of apoptotic cells was determined after 63 hrs.
The first step comprises contacting tumor cells in media comprising TGF-beta with the test compounds to be analyzed for their properties of apoptosis induction. After a specific incubation time, the extent of apoptosis induction is determined, e.g. after two days. Methods for determining the apoptosis in cells in a quantitative manner are well known in the art and are for example described by Jürgensmeier et al. (Cancer Research 1994; 54:393-398). […] These features of apoptotic cells can be determined through phase contrast microscopy or after chromatin staining with fluorescent dyes, followed by fluorescence microscopy. […]

SKNMC = assay: Inhibitor effect on inducer-mediated apoptosis, SKNMC cells (Example 6); format: cell-based, human
Experimental: as §1, §3

[5] = SISO, inducer at increasing concentrations

## C[C@@H]1CC[C@H]2[C@@H](C)C(=O)O[C@@H]3O[C@@]4(C)CC[C@@H]1[C@]32OO4 [Artemisinine]
MKN-45
  apoptosis inhibitory effect of Histidine: +
  apoptosis inhibitory effect of L-NAME: +
  apoptosis inhibitory effect of Taurine: +

## N=C(NO)NCC[C@H](N)C(=O)O [Nor-NOHA, N^omega-hydroxy-nor-L-arginine]
[1]
  synergistic effect with taxol on apoptosis: synergistic effect

## CC(=O)O[C@H]1C(=O)[C@@]2(C)[C@H]([C@H](OC(=O)c3ccccc3)[C@]3(O)C[C@H](OC(=O)[C@H](O)[C@@H](NC(=O)c4ccccc4)c4ccccc4)C(C)=C1C3(C)C)[C@]1(OC(C)=O)CO[C@@H]1C[C@@H]2O [Taxol]
[1]; 2 mM histidine
  effect of histidine on taxol-induced apoptosis: inhibited by histidine at all concentrations
[1]; Taxol 1.25-20 ng/ml, 20 ng/ml TGF-beta
  apoptosis induction: apoptosis already occurs after 12.5 hours at all concentrations
[1]; taxol 10 μg/ml, 25 μM inhibitors for caspase 3, -9 and 8
  caspase dependence of apoptosis induction: mediated by caspases 9 and 3 (mitochondrial pathway) and is independent of the death receptor specific caspase 8
[1]; taxol 10 μg/ml, 100 μM AEBSF, 100 U/ml SOD
  effect of inhibitors of superoxide anion generation (AEBSF, SOD) on taxol-mediated apoptosis: inhibited
[1]; taxol 10 μg/ml, 2.4 mM L-NAME
  effect of inhibitor of the NO pathway (L-NAME) on taxol-mediated apoptosis: not by the inhibitor of the NO pathway
[1]; taxol 10 μg/ml, 100 U/ml catalase, 150 μM ABH, 50 mM taurine, 1 mM mannitol
  effect of inhibitors of the HOCl pathway (catalase, ABH, taurine, mannitol) on taxol-mediated apoptosis: inhibited
[2]
  apoptosis induction in diploid fibroblasts: did not induce significant apoptosis
Gumbus
  apoptosis inhibitory effect of Histidine: +
  apoptosis inhibitory effect of L-NAME: +
  apoptosis inhibitory effect of Taurine: +
[3]; 2 μg/ml taxol, data not shown
  signaling pathway used at low taxol concentration: the NO pathway became more prominent
[3]; siRNA-based genetic knockdown
  apoptosis induction in SISO cells with siRNA knockdown of superoxide anion generation: did not lead to taxol-mediated apoptosis induction
SISO cells; 2 mM histidine at start
  effect of histidine added at the beginning on taxol-induced apoptosis: inhibits the tumor apoptosis to a great extend
SISO cells; 2.4 mM L-NAME 5 hours after beginning
  effect of late addition of L-NAME on taxol-induced apoptosis: only shows some inhibition at low taxol concentrations
SISO cells; 2.4 mM L-NAME at start
  effect of early addition of L-NAME on taxol-induced apoptosis: inhibits tumor apoptosis
SISO cells; 50 mM taurine at start or after 5 hours
  effect of taurine on taxol-induced apoptosis: only inhibits tumor apoptosis at high taxol concentrations
SISO cells; [5]
  apoptosis inhibitory effect of Histidine: +
  apoptosis inhibitory effect of L-NAME: +
  apoptosis inhibitory effect of Taurine: +
SISO cells; histidine 5 hours after beginning
  effect of late addition of histidine on taxol-induced apoptosis: only shows a small effect of apoptosis inhibition
SHEP
  apoptosis inhibitory effect of Histidine: +
SHEP; 3-Br-7-Nitroindazole 10 μm
  apoptosis inhibitory effect of 3-Br-7-NI: +

## Nc1nc[nH]n1 [3-AT, 3-aminotriazole]
[4]; 2 mM histidine
  effect of histidine on induced apoptosis (singlet oxygen dependence): singlet oxygen is not required
[4]; 12.5 or 25 μg/ml azole, 75 mM 3-AT, without TGF-beta
  apoptosis induction (percentage of apoptotic cells): induced apoptosis in the tumor cells to a significant extent
L929 cells
  effect of histidine on induced apoptosis: not blocked by histidine

## N=C(N)NCCC[C@H](N)C(=O)O [Arginine]
SKNMC
  apoptosis inhibitory effect of Histidine: +
SKNMC; 3-Br-7-Nitroindazole 10 μm
  apoptosis inhibitory effect of 3-Br-7-NI: +
[1]
  synergistic effect with taxol on apoptosis: synergistic effect
Gumbus
  apoptosis inhibitory effect of Histidine: +
  apoptosis inhibitory effect of L-NAME: +
  apoptosis inhibitory effect of Taurine: +

## Clc1ccc(COC(Cn2ccnc2)c2ccc(Cl)cc2Cl)c(Cl)c1 (centres unmarked) [Miconazole]
Gumbus
  apoptosis inhibitory effect of Histidine: +
  apoptosis inhibitory effect of L-NAME: +
  apoptosis inhibitory effect of Taurine: +

## COc1cc(O)c(CC=C(C)C)c(O)c1C(=O)/C=C/c1ccc(O)cc1 [Xanthohumol]
Gumbus
  apoptosis inhibitory effect of Histidine: +
  apoptosis inhibitory effect of L-NAME: +
  apoptosis inhibitory effect of Taurine: +

## CCC(C)n1ncn(-c2ccc(N3CCN(c4ccc(OCC5COC(Cn6cncn6)(c6ccc(Cl)cc6Cl)O5)cc4)CC3)cc2)c1=O (centres unmarked) [Itraconazole]
Gumbus
  apoptosis inhibitory effect of Histidine: +
  apoptosis inhibitory effect of L-NAME: +
  apoptosis inhibitory effect of Taurine: +
